Experimental data as given in the CheMixHub viscosity set.

Experiment: xn = mol fraction of the nth substance listed

CCOC(C)=O + CC(C)O
viscosity [mPa·s], 101.3 kPa
Details | x1 = 0.1003 | x1 = 0.2045 | x1 = 0.3082 | x1 = 0.4005 | x1 = 0.4994 | x1 = 0.5952 | x1 = 0.7049 | x1 = 0.7916 | x1 = 0.9011
298.15 K | 1.326 | 0.9655 | 0.767 | 0.6606 | 0.5797 | 0.5283 | 0.4812 | 0.466 | 0.4473
303.15 K | 1.177 | 0.8717 | 0.701 | 0.6122 | 0.5391 | 0.4939 | 0.4525 | 0.4389 | 0.4233
308.15 K | 1.044 | 0.7861 | 0.6407 | 0.5644 | 0.5011 | 0.4617 | 0.4257 | 0.4153 | 0.4006
313.15 K | 0.9286 | 0.7126 | 0.5876 | 0.5224 | 0.4673 | 0.4332 | 0.4012 | 0.3911 | 0.3793
318.15 K | 0.8325 | 0.6477 | 0.5427 | 0.4856 | 0.4365 | 0.4066 | 0.3798 | 0.3711 | 0.3605
323.15 K | 0.7498 | 0.5901 | 0.501 | 0.4503 | 0.4088 | 0.3831 | 0.3586 | 0.3513 | 0.343

COC(=O)CC(C)=O + CC(C)O
viscosity [mPa·s], 101.3 kPa
Details | x1 = 0.1028 | x1 = 0.2052 | x1 = 0.3051 | x1 = 0.4085 | x1 = 0.4086 | x1 = 0.5084 | x1 = 0.6057 | x1 = 0.7079 | x1 = 0.8053 | x1 = 0.9038
298.15 K | 1.457 | 1.267 | 1.195 | 1.168 | – | 1.16 | 1.189 | 1.243 | 1.315 | 1.419
303.15 K | 1.279 | 1.124 | 1.068 | 1.051 | – | 1.049 | 1.08 | 1.127 | 1.197 | 1.287
308.15 K | 1.023 | 1.006 | 0.963 | – | 0.952 | 0.956 | 0.985 | 1.032 | 1.094 | 1.133

FC(F)(F)C(F)(F)Cl + CC(F)F
Details | viscosity [mPa·s]
299.88 K, 101.13 kPa, x1 = 0.69 | 0.1856

OCC(O)CO + CCC(C)O
viscosity [mPa·s], 101.33 kPa
Details | x1 = 0.103 | x1 = 0.2005 | x1 = 0.3005 | x1 = 0.4065 | x1 = 0.5004 | x1 = 0.6005 | x1 = 0.6997 | x1 = 0.7989 | x1 = 0.8998
298.15 K | 4.899 | 8.259 | 14.21 | 26.4 | 50.58 | 96.78 | 190.1 | 327.9 | 521.9
308.15 K | 3.311 | 5.321 | 8.761 | 15.79 | 27.46 | 49.39 | 90.98 | 149.4 | 231.6
318.15 K | 2.387 | 3.648 | 5.727 | 9.681 | 15.6 | 26.39 | 45.42 | 71.57 | 107.4

CCCCCCCCCCCCCCCCCCCl + CCCCC
298 K, 101.3 kPa
Details | viscosity [mPa·s]
x2 = 0.1054 | 6.009
x2 = 0.2014 | 4.945
x2 = 0.3067 | 3.902
x2 = 0.4166 | 2.952
x2 = 0.4993 | 2.325
x2 = 0.6122 | 1.613
x2 = 0.7054 | 1.157
x2 = 0.8048 | 0.7477
x2 = 0.9029 | 0.431

CCOC(C)=O + CCCCCC
Details | viscosity [mPa·s]
293.15 K, 101 kPa, x1 = 0.0998 | 0.3115
293.15 K, 101 kPa, x1 = 0.2074 | 0.3152
293.15 K, 101 kPa, x1 = 0.2978 | 0.3217
293.15 K, 101 kPa, x1 = 0.4046 | 0.3303
293.15 K, 101 kPa, x1 = 0.5034 | 0.3416
293.15 K, 101 kPa, x1 = 0.614 | 0.3599
293.15 K, 101 kPa, x1 = 0.6748 | 0.3683
293.15 K, 101 kPa, x1 = 0.8018 | 0.3963
293.15 K, 101 kPa, x1 = 0.9118 | 0.4248
298.15 K, 101 kPa, x1 = 0.0436 | 0.29
298.15 K, 101 kPa, x1 = 0.0998 | 0.2967
298.15 K, 101 kPa, x1 = 0.15 | 0.293
298.15 K, 101 kPa, x1 = 0.2074 | 0.3001
298.15 K, 101 kPa, x1 = 0.2504 | 0.298
298.15 K, 101 kPa, x1 = 0.2978 | 0.3052
298.15 K, 101 kPa, x1 = 0.3494 | 0.305
298.15 K, 101 kPa, x1 = 0.4046 | 0.3142
298.15 K, 101 kPa, x1 = 0.4477 | 0.314
298.15 K, 101 kPa, x1 = 0.4908 | 0.319
298.15 K, 101 kPa, x1 = 0.5034 | 0.3265
298.15 K, 101 kPa, x1 = 0.5489 | 0.326
298.15 K, 101 kPa, x1 = 0.614 | 0.3413
298.15 K, 101 kPa, x1 = 0.6485 | 0.342
298.15 K, 101 kPa, x1 = 0.6748 | 0.3496
298.15 K, 101 kPa, x1 = 0.7513 | 0.361
298.15 K, 101 kPa, x1 = 0.8018 | 0.3755
298.15 K, 101 kPa, x1 = 0.8507 | 0.384
298.15 K, 101 kPa, x1 = 0.9118 | 0.402
298.15 K, 101 kPa, x1 = 0.942 | 0.41
303.15 K, 101 kPa, x1 = 0.0998 | 0.283
303.15 K, 101 kPa, x1 = 0.2032 | 0.2874
303.15 K, 101 kPa, x1 = 0.2074 | 0.2861
303.15 K, 101 kPa, x1 = 0.2978 | 0.2901
303.15 K, 101 kPa, x1 = 0.4017 | 0.3009
303.15 K, 101 kPa, x1 = 0.4046 | 0.2991
303.15 K, 101 kPa, x1 = 0.5013 | 0.3117
303.15 K, 101 kPa, x1 = 0.5034 | 0.3092
303.15 K, 101 kPa, x1 = 0.599 | 0.3249
303.15 K, 101 kPa, x1 = 0.614 | 0.3231
303.15 K, 101 kPa, x1 = 0.6748 | 0.3317
303.15 K, 101 kPa, x1 = 0.8018 | 0.3565
303.15 K, 101 kPa, x1 = 0.8203 | 0.3611
303.15 K, 101 kPa, x1 = 0.9118 | 0.3812
303.15 K, 101.3 kPa, x1 = 0.106 | 0.2774
303.15 K, 101.3 kPa, x1 = 0.1995 | 0.2799
303.15 K, 101.3 kPa, x1 = 0.3097 | 0.2869
303.15 K, 101.3 kPa, x1 = 0.4073 | 0.2945
303.15 K, 101.3 kPa, x1 = 0.5055 | 0.3045
303.15 K, 101.3 kPa, x1 = 0.6094 | 0.3179
303.15 K, 101.3 kPa, x1 = 0.7062 | 0.3331
303.15 K, 101.3 kPa, x1 = 0.8061 | 0.3523
303.15 K, 101.3 kPa, x1 = 0.9036 | 0.3748
308.15 K, 101 kPa, x1 = 0.0436 | 0.272
308.15 K, 101 kPa, x1 = 0.15 | 0.274
308.15 K, 101 kPa, x1 = 0.2504 | 0.277
308.15 K, 101 kPa, x1 = 0.3494 | 0.282
308.15 K, 101 kPa, x1 = 0.4477 | 0.29
308.15 K, 101 kPa, x1 = 0.4908 | 0.294
308.15 K, 101 kPa, x1 = 0.5489 | 0.3
308.15 K, 101 kPa, x1 = 0.6485 | 0.313
308.15 K, 101 kPa, x1 = 0.7513 | 0.33
308.15 K, 101 kPa, x1 = 0.8507 | 0.349
308.15 K, 101 kPa, x1 = 0.942 | 0.371
313.15 K, 101 kPa, x1 = 0.0998 | 0.2582
313.15 K, 101 kPa, x1 = 0.2074 | 0.2604
313.15 K, 101 kPa, x1 = 0.2978 | 0.2643
313.15 K, 101 kPa, x1 = 0.4046 | 0.2723
313.15 K, 101 kPa, x1 = 0.5034 | 0.2806
313.15 K, 101 kPa, x1 = 0.614 | 0.2933
313.15 K, 101 kPa, x1 = 0.6748 | 0.3004
313.15 K, 101 kPa, x1 = 0.8018 | 0.3224
313.15 K, 101 kPa, x1 = 0.9118 | 0.3443

Clc1cccc(Cl)c1 + CCCCCC
viscosity [mPa·s], 100 kPa
Details | 298.15 K | 308.15 K | 318.15 K
x1 = 0.0593 | 0.327 | 0.301 | 0.282
x1 = 0.1575 | 0.36 | 0.331 | 0.309
x1 = 0.255 | 0.4 | 0.368 | 0.338
x1 = 0.3473 | 0.446 | 0.407 | 0.37
x1 = 0.4204 | 0.487 | 0.442 | 0.4
x1 = 0.48 | 0.524 | 0.473 | 0.427
x1 = 0.5322 | 0.56 | 0.504 | 0.454
x1 = 0.5704 | 0.588 | 0.528 | 0.475
x1 = 0.6295 | 0.634 | 0.568 | 0.51
x1 = 0.6705 | 0.669 | 0.598 | 0.537
x1 = 0.7263 | 0.719 | 0.642 | 0.577
x1 = 0.8186 | 0.81 | 0.724 | 0.649
x1 = 0.9465 | 0.952 | 0.851 | 0.76

CCOC(C)=O + CCCCCCC
296 K, 101.3 kPa
Details | viscosity [mPa·s]
x1 = 0.0713 | 0.391
x1 = 0.1748 | 0.385
x1 = 0.2448 | 0.382
x1 = 0.3468 | 0.382
x1 = 0.4832 | 0.383
x1 = 0.4946 | 0.381
x1 = 0.5009 | 0.382
x1 = 0.5867 | 0.387
x1 = 0.6508 | 0.392
x1 = 0.7653 | 0.403
x1 = 0.8485 | 0.413
x1 = 0.8885 | 0.42

COC(=O)CC(C)=O + CCCCCCC(C)O
viscosity [mPa·s], 101.3 kPa
Details | x1 = 0.1041 | x1 = 0.2072 | x1 = 0.3091 | x1 = 0.4101 | x1 = 0.5107 | x1 = 0.6079 | x1 = 0.7081 | x1 = 0.807 | x1 = 0.9036
298.15 K | 4.231 | 3.315 | 2.753 | 2.358 | 2.075 | 1.9 | 1.699 | 1.574 | 1.52
303.15 K | 3.511 | 2.796 | 2.344 | 2.026 | 1.796 | 1.661 | 1.506 | 1.413 | 1.374
308.15 K | 2.939 | 2.377 | 2.015 | 1.756 | 1.567 | 1.476 | 1.352 | 1.279 | 1.251

CCCCCCCCCCCCCCCCCCCl + CCCCCCCCCC
298 K, 101.3 kPa
Details | viscosity [mPa·s]
x2 = 0.1067 | 6.162
x2 = 0.2123 | 5.192
x2 = 0.3131 | 4.379
x2 = 0.3996 | 3.651
x2 = 0.508 | 2.885
x2 = 0.6105 | 2.385
x2 = 0.7027 | 1.919
x2 = 0.8012 | 1.487
x2 = 0.8979 | 1.145

CCCCCCCCCCCC(=O)OC + CCCCCCCCCC(=O)OCC
viscosity [mPa·s], 100 kPa
Details | 298.15 K | 308.15 K | 318.15 K
x2 = 0.04836 | 2.784 | 2.203 | 1.856
x2 = 0.1051 | 2.725 | 2.165 | 1.824
x2 = 0.1954 | 2.649 | 2.106 | 1.778
x2 = 0.3128 | 2.556 | 2.041 | 1.723
x2 = 0.4082 | 2.482 | 1.988 | 1.677
x2 = 0.5008 | 2.417 | 1.945 | 1.639
x2 = 0.5987 | 2.348 | 1.897 | 1.601
x2 = 0.6571 | 2.307 | 1.87 | 1.582
x2 = 0.7044 | 2.274 | 1.849 | 1.567
x2 = 0.8 | 2.211 | 1.806 | 1.533
x2 = 0.8986 | 2.147 | 1.763 | 1.497
